Laboratory results: patent publication US6362369B1, “Phthalic acid diamide derivatives fluorine-containing aniline compounds as starting material, agricultural and horticultural insecticides, and a method for application of the insecticides” (Nihon Nohyaku Co., Ltd., priority 1997, dated 2002)

Legend:
Format in all cases: in vivo
[1] = system: rice leafroller (Cnaphalocrocis medinalis); assay: Insecticidal effect on rice leafroller (Test Example 3); details: 500 ppm, 25° C., humidity 70%; for Insecticidal effect, Test Example 3: rice lamina immersed; for Insecticidal effect, Test Example 3 / Insecticidal effect on rice leafroller (Test Example 3), judged grade: four days after inoculation; for Insecticidal effect (Test Example 3), judged from mortality / Insecticidal effect on rice leafroller (Test Example 3), judged grade: rice lamina dip; for Insecticidal effect (Test Example 3), judged from mortality: 4 days after inoculation; for Insecticidal effect on rice leafroller (Test Example 3), judged grade: third-instar larvae
Summary of the method: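 Insecticidal effect is judged by a predefined criterion from dead/alive counts four days after infesting air-dried lamina with third-instar larvae, kept on moistened filter paper at 25° C, 70% humidity.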

[2] = system: diamondback moth (Plutella xylostella); assay: Insecticidal effect on diamondback moth (Test Example 1); details: for Insecticidal effect, Test Example 1 / Insecticidal effect (Test Example 1), judged from mortality: diamondback moth; for Insecticidal effect (Test Example 1), judged from mortality: judged by the criterion of Test Example 1; for Insecticidal effect on diamondback moth (Test Example 1), judged grade: mortality judged according to the criterion shown in Test Example 1
Summary of the method: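 Triplicate groups of 10 insects: eggs laid on Chinese cabbage seedling by adults, seedling immersed then air-dried, kept at 25° C. Day-6 hatch counts gave mortality, rated by criterion.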

[3] = system: common cutworm (Spodoptera Litura); assay: Insecticidal effect on common cutworm (Test Example 2); details: 500 ppm, 25° C.; for Insecticidal effect, Test Example 2: cabbage leaf immersed; for Insecticidal effect, Test Example 2 / Insecticidal effect on common cutworm (Test Example 2), judged grade: eight days after inoculation; for Insecticidal effect (Test Example 2), judged from mortality / Insecticidal effect on common cutworm (Test Example 2), judged grade: cabbage leaf dip; for Insecticidal effect (Test Example 2), judged from mortality: 8 days after inoculation; for Insecticidal effect on common cutworm (Test Example 2), judged grade: second-instar larvae
Summary of the method: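 After the treated material air-dries, it goes into a dish, second-instar larvae are added, and the dish is closed. Incubation runs at 25° C. On day eight, dead and living larvae are scored, and the calculated mortality is rated on an effect scale.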

[4] = rice leafroller third-instar larvae
[5] = mortality judged by criterion of Test Example 1
[6] = common cutworm second-instar larvae
[7] = third-instar larvae of rice leafroller
[8] = second-instar larvae of common cutworm
[9] = judged by the mortality criterion of Test Example 1

Compound	Insecticidal effect, Test Example 3 [1, 7]	Insecticidal effect, Test Example 1 [2, 9]	Insecticidal effect, Test Example 2 [3, 8]	further results
Cc1cc(C(F)(F)C(F)(F)F)ccc1NC(=O)c1cccc(I)c1C(=O)NC1CCCC1 [compound 991]	–	–	–	Insecticidal effect, Test Example 3 [1, 4]: A (100); Insecticidal effect, Test Example 1 [2, 5]: A (100); Insecticidal effect, Test Example 2 [3, 6]: A (100)
Cc1cc(C(F)(F)C(F)(F)F)ccc1NC(=O)c1cccc(I)c1C(=O)NC(C)(C)CBr [compound 1647]	–	–	–	Insecticidal effect (Test Example 3), judged from mortality [1, 7]: A (100); Insecticidal effect (Test Example 1), judged from mortality [2]: A (100); Insecticidal effect (Test Example 2), judged from mortality [3, 8]: A (100)
Cc1cc(Br)ccc1NC(=O)c1c(I)cccc1C(=O)NC(C)C [compound 430]	D (79-50)	A (100)	D (79-50)	–
COCC(C)NC(=O)c1c(C(=O)Nc2ccc(OC(F)F)cc2C)cccc1[N+](=O)[O-] (stereo not drawn) [compound 874]	–	–	–	Insecticidal effect on rice leafroller (Test Example 3), judged grade [1]: A (100); Insecticidal effect on diamondback moth (Test Example 1), judged grade [2]: A (100); Insecticidal effect on common cutworm (Test Example 2), judged grade [3]: C (89-80)
CC(C)NC(=O)c1c(I)cccc1C(=O)Nc1ccc(OC(F)F)cc1C(F)(F)F [compound 409]	A (100)	A (100)	A (100)	–
Cc1cc(OC(F)F)c(Cl)cc1NC(=O)c1cccc(I)c1C(=O)NC(C)C [compound 396]	A (100)	A (100)	A (100)	–
CCN(CC)C(=O)c1c(F)cccc1C(=O)Nc1ccc(C(F)(C(F)(F)F)C(F)(F)F)cc1C [compound 1526]	–	–	–	Insecticidal effect (Test Example 3), judged from mortality [1, 7]: A (100); Insecticidal effect (Test Example 1), judged from mortality [2]: A (100); Insecticidal effect (Test Example 2), judged from mortality [3, 8]: A (100)
Cc1cc(Cl)ccc1NC(=O)c1ccccc1C(=O)NC(C)C [compound 50]	A (100)	A (100)	A (100)	–
Cc1cc(C(F)(F)F)ccc1NC(=O)c1cccc(Br)c1C(=O)NC(C)C [compound 277]	A (100)	A (100)	A (100)	–
Cc1cc(OC(F)(F)F)ccc1NC(=O)c1cccc(I)c1C(=O)NC(C)C [compound 386]	A (100)	A (100)	A (100)	–
Cc1cc(OC(F)(F)C(F)F)ccc1NC(=O)c1cccc(Cl)c1C(=O)NC(C)C [Compound No. 141, 3-chloro-N^1-[4-(1,1,2,2-tetrafluoroethoxy)-2-methylphenyl]-N^2-isopropylphthalic acid diamide]	A (100)	A (100)	A (100)	–
CC(C)NC(=O)c1c(Br)cccc1C(=O)Nc1ccc(C(F)(F)F)cc1Cl [compound 276]	A (100)	A (100)	A (100)	–
CC(C)NC(=O)c1c(C(=O)Nc2ccc(C(F)(F)C(F)(F)F)cc2)cccc1[N+](=O)[O-] [compound 890]	–	–	–	Insecticidal effect on rice leafroller (Test Example 3), judged grade [1]: A (100); Insecticidal effect on diamondback moth (Test Example 1), judged grade [2]: A (100); Insecticidal effect on common cutworm (Test Example 2), judged grade [3]: A (100)
CC(C)NC(=O)c1cccc(Br)c1C(=O)Nc1ccc(C(F)(F)F)cc1 [compound 301]	D (79-50)	A (100)	A (100)	–
Cc1cc(OCC(F)(F)C(F)F)ccc1NC(=O)c1c(Br)cccc1C(=O)NC(C)C [compound 319]	B (99-90)	A (100)	B (99-90)	–
CCN(CC)C(=O)c1c(I)cccc1C(=O)Nc1ccc(C(F)(F)C(F)(F)F)cc1C [compound 1561]	–	–	–	Insecticidal effect (Test Example 3), judged from mortality [1, 7]: A (100); Insecticidal effect (Test Example 1), judged from mortality [2]: A (100); Insecticidal effect (Test Example 2), judged from mortality [3, 8]: A (100)
C=CCN(CC=C)C(=O)c1c(I)cccc1C(=O)Nc1ccc(C(F)(F)C(F)(F)F)cc1C [compound 1045]	–	–	–	Insecticidal effect, Test Example 3 [1, 4]: A (100); Insecticidal effect, Test Example 1 [2, 5]: A (100); Insecticidal effect, Test Example 2 [3, 6]: A (100)
CCOCCNC(=O)c1c(I)cccc1C(=O)Nc1ccc(C(F)(F)C(F)(F)F)cc1C [compound 983]	–	–	–	Insecticidal effect, Test Example 3 [1, 4]: A (100); Insecticidal effect, Test Example 1 [2, 5]: A (100); Insecticidal effect, Test Example 2 [3, 6]: A (100)
